Measured values published in patent US20210052741A1, “GENE THERAPY METHODS AND COMPOSITIONS USING AUXOTROPHIC REGULATABLE CELLS” (AUXOLYTIC LTD, priority 2018, published 2021).
Several values for one entry are separate records, joined by “and”; a condition that tells them apart may be missing. Equal entries are not always repeated.

Key:
[1] = tested on: UMPS^KO/KO T cells mixed with wild-type T cells; assay: 5-FOA selection in mixed T cell population; assay type: cell-based, human
Excerpt: To evaluate the possibility to select for UMPS^KO/KO cells with 5-FOA, the sorted cells were mixed with wild-type cells, which were labeled with different tracking dyes, and cultured in the presence or absence of 5-FOA. In part of the samples, 5-FOA was only added on the first day (Day 0) while in another group it was supplemented daily. Table 30 and FIG. 7C show the percent (%) of the UMPS-KO T cells (labelled with eFluor670) over time when culturing with or without 5-FOA.
In fact, FACS analysis of a culture of a mixed population of UMPS knockout and wild-type T cells with 5-FOA. UMPS-KO T cells were labeled with eFluor670, and wild-type cells were labeled with carboxyfluorescein succinimidyl ester (CFSE). […] On Day 0 in the control group not treated with 5-FOA, 47.7% of the cells were UMPS-KO T cells, and 52.1% were wild-type cells. On Day 3 in the group with 5-FOA supplemented daily, 74.0% of the cells were UMPS-KO T cells, while 25.8% were wild-type cells. On Day 3 in the control group not treated with 5-FOA, 43.1% of the cells were UMPS-KO T cells, and 56.4% were wild-type cells.

UMPS-7 targeted T cells = assay: 5-FOA selection, cell counts after 4 days; assay type: cell-based, human; conditions: for Average of cells per volume unit: UMPS-7, 4 days in 5-FOA without serum; for Average number of cells per volume unit: UMPS-7, 4 days in 5-FOA
Procedure: (§1) 5-FOA selects for uracil auxotrophic cells in other organisms (e.g. Boeke et al. 1984, Mol. Gen. Genet. 197(2):345-6), which is hereby incorporated by reference in its entirety). To investigate the potential utility of 5-FOA for the selection of uracil auxotrophs among human cells, the UMPS gene was targeted in human T cells by Cas9-gRNA complex electroporation followed by recovery (as shown in Example 2) followed by an assay of resistance to 5-FOA treatment (FIG. 3A). Cells were grown in 5-FOA and a variety of combinations of serum and uracil sources for 4 days before cell counting was performed.

Mock T cells [2] = assay: 5-FOA selection, cell counts after 4 days; assay type: cell-based, human; conditions: for Average of cells per volume unit / Average number of cells per volume unit: Mock; for Average of cells per volume unit: 4 days in 5-FOA without serum; for Average number of cells per volume unit: 4 days in 5-FOA
Procedure: as §1

Mock T cells [3] = assay: Uracil auxotrophy growth assay after 5-FOA selection; assay type: cell-based, human; conditions: after 4 days 5-FOA selection, 4 days in supplemented media, without serum
Procedure: To assay whether or not the cells selected for by 5-FOA treatment were uracil auxotrophs, mock or UMPS targeted T cells were exposed to 5-FOA as shown in Example 4. Following 4 days of 5-FOA selection, the population of cells was split into an uracil containing media (UMP, uridine or both) and an uracil deficient media. A growth assay was subsequently performed by cell counting after following 4 days incubation in test media (Day 8) (FIG. 4A). In all cases, cell growth in the mock targeted cell cultures was negligible and independent of uracil source supplementation—indicating successful killing of non-UMPS targeted cells during the 5-FOA selection step (FIG. 4B-FIG. 4D).

UMPS edited T cells = assay: TIDE analysis of UMPS InDels in mixed UMPS edited population; assay type: cell-based, human
Procedure: Sanger sequencing of the UMPS locus was performed using UMPS-O-1 and UMPS-O-2, with the region amplified using PHUSION™ Hot Start Flex 2x Master Mix (New England Biolabs, Inc.). Sanger sequencing traces were analyzed by TIDE analysis (see, Brinkman et al, 2014, Nucleic Acids Res. 42(22):e168), which is hereby incorporated by reference in its entirety) to identify insertions and deletions (InDels) after editing. InDel quantification was performed on the sequences using the TIDE online tool (www.deskgen.com/landing/tide.html) (See, M. Sadelain, N. Engl. J. Med. 365, 1735-7 (2011), which is hereby incorporated by reference in its entirety.
T Cells were electroporated and edited as in Example 2 and allowed to recover for a 4-day period in medium with serum, uridine, and UMP. On day 4, cells were shifted to UMP, uridine, or uracil source media. […]
To confirm the results on the genomic level, genomic DNA was harvested at the end of the experiment and InDels were quantified (FIG. 5D-FIG. 5E). FIG. 5D compares the frequency of InDels in different culture conditions for cells not exposed to 5-FOA.

[4] = oral; cited from earlier work
UMPS KO T cells = assay: Auxotrophy assay in sorted T cells; assay type: cell-based, human; conditions: for Relative viability on Day 4 (%) / Viable cells per ml: UMPS KO
Procedure: (§2) These T cells were also subjected to an auxotrophy assay and the possibility to select these cells with 5-FOA was tested. […] Higher Uridine concentrations led to higher proliferation rates. Auxotrophic growth of UMPS KO or wild-type (WT) T cells is shown in FIG. 7B and Table 28.

WT T cells = assay: Auxotrophy assay in sorted T cells; assay type: cell-based, human; conditions: for Viable cells per ml: Anti-CD3/-CD28 beads
Procedure: as §2

[5] = cells not exposed to 5-FOA, end of experiment, metabolite 250 μg/ml

O=C(O)c1[nH]c(=O)[nH]c(=O)c1F [5-FOA, 5-fluoroorotic acid]
Percent of UMPS^KO/KO cells in mixed cell population, Day 0 ([1]; 5-FOA Day 0 only): 43.7% and 43.2% | Percent of UMPS^KO/KO cells in mixed cell population, Day 1 ([1]; 5-FOA Day 0 only): 59.2% and 55.6% and 50.8% | Percent of UMPS^KO/KO cells in mixed cell population, Day 3 ([1]; 5-FOA Day 0 only): 67.2% and 68.6% and 67.8% | Percent of UMPS^KO/KO cells in mixed cell population, Day 0 ([1]; 5-FOA daily): 43.2% | Percent of UMPS^KO/KO cells in mixed cell population, Day 1 ([1]; 5-FOA daily): 58.5% and 55.4% and 54.5% | Percent of UMPS^KO/KO cells in mixed cell population, Day 3 ([1]; 5-FOA daily): 70.7% and 69.2% | percent wild-type cells in mixed population, Day 0 ([1]; 5-FOA only on the first day (Day 0), FACS): 56.0% | percent wild-type cells in mixed population, Day 3 ([1]; 5-FOA supplemented daily, FACS): 25.8% | percent of UMPS-KO T cells, treated vs untreated group ([1]; unpaired t test): significant increase in the percent of UMPS-KO T cells | Average of cells per volume unit (UMPS-7 targeted T cells; No UMP/Uridine): 52156.98 cells per volume unit and 67438.73 cells per volume unit | Average number of cells per volume unit (UMPS-7 targeted T cells; No Serum, No UMP/Uridine): 56895.21 cells per volume unit | Average number of cells per volume unit (UMPS-7 targeted T cells; With Serum, No UMP/Uridine): 54282.95 cells per volume unit | Average of cells per volume unit (Mock T cells [2]; No UMP/Uridine): 12279.07 cells per volume unit and 16467.39 cells per volume unit | Average number of cells per volume unit (Mock T cells [2]; No Serum, No UMP/Uridine): 13947.04 cells per volume unit | Average number of cells per volume unit (Mock T cells [2]; With Serum, No UMP/Uridine): 13403.28 cells per volume unit

O=c1ccn([C@@H]2O[C@H](CO)[C@@H](O)[C@H]2O)c(=O)[nH]1 [Uridine]
Cells counts on Day 8 (Mock T cells [3]): 1249 and 687 | Alleles with frameshift InDels, Percent of alleles (without 5-FOA) (UMPS edited T cells; TIDE, day 8, metabolite 250 μg/ml): 52.5% | Alleles with InDels, Percent of alleles (without 5-FOA) (UMPS edited T cells; TIDE, metabolite 250 μg/ml): 77.0% | frameshift InDel frequency, Percent (UMPS edited T cells; [5]): 52.5% | overall InDel frequency, Percent (%) (UMPS edited T cells; [5]): 77.0% | Predicted viable cell counts, Cells with In-frame InDel (UMPS edited T cells; day 8, metabolite 250 μg/ml): 777000 | Predicted viable cell counts, Cells with frameshift InDel (UMPS edited T cells; day 8, metabolite 250 μg/ml): 1660000 | Predicted viable cell counts, Cells without InDel (UMPS edited T cells; day 8, metabolite 250 μg/ml): 729100 | survival in 5-FOA compared to control (UMPS-7 targeted T cells; UMPS targeted cells): improved the survival | Average of cells per volume unit (UMPS-7 targeted T cells; with substrate): 77755.72 cells per volume unit | Average of cells per volume unit (Mock T cells [2]; with substrate): 53052.43 cells per volume unit | survival in 5-FOA compared to control (Mock T cells [2]; mock treated cells): improved the survival | absorption and breakdown [4]: poorly absorbed in the gastrointestinal tract and broken down in the liver | proliferation (UMPS KO T cells; Anti-CD3/-CD28 beads, different Uridine concentrations): proliferated only in the presence of Uridine | Relative viability on Day 4 (%) (UMPS KO T cells; 2.5 μg/ml Uridine): 78.78 and 79.28 and 79.74 | Viable cells per ml (UMPS KO T cells; 2.5 μg/ml uridine, Anti-CD3/-CD28 beads): 226596 cells per ml and 217594 cells per ml and 224448 cells per ml | Relative viability on Day 4 (%) (UMPS KO T cells; 25 μg/ml Uridine): 82.16 and 81.57 and 83.09 | Viable cells per ml (UMPS KO T cells; 25 μg/ml uridine, Anti-CD3/-CD28 beads): 282368 cells per ml and 268684 cells per ml and 304864 cells per ml | Relative viability on Day 4 (%) (UMPS KO T cells; 250 μg/ml Uridine): 85.66 and 85.29 and 84.38 | Viable cells per ml (UMPS KO T cells; 250 μg/ml uridine, Anti-CD3/-CD28 beads): 319120 cells per ml and 345862 cells per ml and 348022 cells per ml | Relative viability of the cell population on Day 4 (WT T cells; 2.5 μg/ml Uridine): 84.64 and 82.19 and 80.45 | Viable cells per ml (WT T cells; 2.5 μg/ml uridine): 486192 cells per ml and 362626 cells per ml and 364194 cells per ml | Relative viability of the cell population on Day 4 (WT T cells; 25 μg/ml Uridine): 83.91 and 83.40 and 79.66 | Viable cells per ml (WT T cells; 25 μg/ml uridine): 384503 cells per ml and 410116 cells per ml and 338547 cells per ml | Relative viability of the cell population on Day 4 (WT T cells; 250 μg/ml Uridine): 86.05 and 86.97 and 87.62 | Viable cells per ml (WT T cells; 250 μg/ml uridine): 609575 cells per ml and 412493 cells per ml and 468354 cells per ml
